Key:
[1] = biological target: T1, cloned human CRF-R1 receptors (Homo sapiens, UniProt P34998); assay: CRF-R1 Receptor Binding Assay (inhibition of 125I-ovine-CRF binding to cell membranes); design: key to activity: a: Ki≦100 nM; b: 100 nM<Ki≦500 nM; c: 500 nM<Ki≦5,000 nM; activity reported in percent inhibition at 10 μM; conditions: CRF assays; class d = activity only as percent inhibition at 10 μM (value not given)
T1 construct: the coding region was amplifies by PCR from start to stop codons; expressed in transfected cells; host or cells: 293EBNA (HEK 293 EBNA-1) cells, episomal vector phchCRFR, hygromycin-selected pool; membranes
T1 sequence (P34998 24-415): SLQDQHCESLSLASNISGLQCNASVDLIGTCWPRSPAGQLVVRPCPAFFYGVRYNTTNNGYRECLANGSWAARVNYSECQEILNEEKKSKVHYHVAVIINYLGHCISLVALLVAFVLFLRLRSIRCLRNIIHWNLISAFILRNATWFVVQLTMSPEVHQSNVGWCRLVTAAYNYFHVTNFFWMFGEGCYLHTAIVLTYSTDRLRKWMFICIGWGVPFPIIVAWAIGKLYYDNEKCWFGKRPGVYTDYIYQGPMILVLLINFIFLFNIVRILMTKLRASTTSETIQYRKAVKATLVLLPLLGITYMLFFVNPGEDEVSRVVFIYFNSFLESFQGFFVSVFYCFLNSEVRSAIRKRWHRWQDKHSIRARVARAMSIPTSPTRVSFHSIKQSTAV
Text: CRF-R1 Receptor Binding Assay for the Evaluation of Biological Activity
The following is a description of the isolation of cell membranes containing cloned human CRF-R1 receptors for use in a standard binding assay as well as a description of the assay itself.
Messenger RNA was isolated from human hippocampus. The mRNA was isolated from human hippocampus. The mRNA was reverse transcribed using oligo (dt) 12–18 and the coding region was amplifies by PCR from start to stop codons. The resulting PCR fragment was cloned into the EcORV site of pGEMV, from whence the insert was reclaimed using XhoI+XbaI and cloned into the XhoI+XbaI sites of vector pm3as (which contains a CMV promoter, the SV′t′ splice and early poly A signals, an Eptein-Barr viral origin of replication, and a hygromycin selectable marker). The resulting expression vector, called phchCRFR was transfected in 293EBNA cells and cells retaining the episome were selected in the presence of […] hygromycin. Cells surviving 4 weeks of selection in hygromycin were pooled, adapted to growth in suspension and used to generate membranes for the binding assay described below. Individual aliquots containing approximately 1×10^8 of the suspended cells were then centrifuged to form a pellet and frozen. For the binding assay a frozen pellet described above containing 293EBNA cells transfected with hCRFR1 receptors is homogenized in 10 mL of ice cold tissue buffer (50 mM HEPES buffer pH 7.0, containing 10 MM MgCl2, 2 mM EGTA, 1 μg/mL apotinin, 1 μg/mL leupeptin and 1 μg/mL pepstatin). The homoginate is centrifuged at 40,000×g for 12 min and the resulting pellet rehomogenized in 10 mL of tissue buffer. After another centrifugation at 40,000×g for 12 min, the pellet is resuspended to a protein concentration of 360 μg/mL to be used in the assay.
Binding assays are performed in 96 well plates; each well having a 300 μL capacity. To each well is added 50 μL of test drug dilutions (final concentration of drugs range from 10^−10–10^−5 M), 100 μL of ^125I-ovine-CRF (^125I-o-CRF) (final concentration 150 pM) and 150 μL of the cell homoginate described above. Plates are then allowed to incubate at room temperature for 2 hours before filtering the incubate over GF/F filters (presoaked with 0.3% polyethyleneimine) using an appropriate cell harvester. Filters are rinsed 2 times with ice cold assay buffer before removing individual filters and assessing them for radioactivity on a gamma counter.
Curves of the inhibition of ^125I-o-CRF binding to cell membranes at various dilutions of test drug are analyzed by the iterative curve fitting program LIGAND [P. J. Munson and D. Rodbard, Anal. Biochem., 107:220 (1980), which provides Ki values for inhibition which are then used to assess biological activity. […]
Messenger RNA was isolated from human hippocampus. The mRNA was isolated from human hippocampus. The mRNA was reverse transcribed using oligo (dt) 12–18 and the coding region was amplifies by PCR from start to stop codons. The resulting PCR fragment was cloned into the EcORV site of pGEMV, from whence the insert was reclaimed using XhoI+XbaI and cloned into the XhoI+XbaI sites of vector pm3as (which contains a CMV promoter, the SV′t′ splice and early poly A signals, an Eptein-Barr viral origin of replication, and a hygromycin selectable marker). The resulting expression vector, called phchCRFR was transfected in 293EBNA cells and cells retaining the episome were selected in the presence of […] hygromycin. Cells surviving 4 weeks of selection in hygromycin were pooled, adapted to growth in suspension and used to generate membranes for the binding assay described below. […]
A frozen pellet described above containing 293EBNA cells transfected with hCRFR1 receptors or the rat frontal cortex tissue dissected from frozen rat brains was prepared as the source of membranes expressing CRF1 receptors used in binding assays. […]

| SMILES | Ki [1] | melting point | activity [1] |
| --- | --- | --- | --- |
| Cc1cc(C)c(Nc2nc(C)ncc2S(=O)(=O)c2ccc(OCc3ccccc3)cc2)c(C)c1 [Example 4, [5-(4-Benzyloxybenzenesulfonyl)-2-methylpyrimidin-4-yl]-(2,4,6-trimethylphenyl)-amine] | ≤ 100 nM | 166 to 168 °C | – |
| COc1ccc(Nc2nc(C)ncc2S(=O)(=O)c2ccc(OCc3ccccc3)cc2)c(C)c1 [Example 5, [5-(4-Benzyloxybenzenesulfonyl)-2-methylpyrimidin-4-yl]-(4-methoxy-2-methylphenyl)-amine] | 100 to 500 nM | 110 to 114 °C | – |
| COc1ccc(Nc2nc(C)ncc2S(=O)(=O)c2ccc(OCc3ccccc3)cc2)c(C)n1 [Example 6, [5-(4-Benzyloxybenzenesulfonyl)-2-methylpyrimidin-4-yl]-(6-methoxy-2-methylpyridin-3-yl)-amine] | – | 160 to 165 °C | d |
| Cc1cc(C)c(Nc2nc(C)ncc2S(=O)(=O)c2cccc(OCc3ccccc3)c2)c(C)c1 [Example 7, [5-(3-Benzyloxybenzenesulfonyl)-2-methylpyrimidin-4-yl]-(2,4,6-trimethylphenyl)-amine] | 100 to 500 nM | 112 to 115 °C | – |
| COc1ncc(S(=O)(=O)c2cccc(OCc3ccccc3)c2)c(Nc2c(C)cc(C)cc2C)n1 [Example 8, [5-(3-Benzyloxybenzenesulfonyl)-2-methoxypyrimidin-4-yl]-(2,4,6-trimethylphenyl)-amine] | – | – | d |
| Cc1cc(C)c(Nc2nc(N(C)C)ncc2S(=O)(=O)c2cccc(OCc3ccccc3)c2)c(C)c1 [Example 9, 5-(3-Benzyloxybenzenesulfonyl)-N^2,N^2-dimethyl-N^4-(2,4,6-trimethylphenyl)-pyrimidine-2,4-diamine] | 500 to 5000 nM | 52 to 58 °C | – |
| COc1ccccc1COc1ccc(S(=O)(=O)c2cnc(C)nc2Nc2c(C)cc(C)cc2C)cc1 [Example 10, {5-[4-(2-Methoxybenzyloxy)-benzenesulfonyl]-2-methylpyrimidin-4-yl}-(2,4,6-trimethylphenyl)-amine] | ≤ 100 nM | 200 to 202 °C | – |
| COc1cc(COc2ccc(S(=O)(=O)c3cnc(C)nc3Nc3c(C)cc(C)cc3C)cc2)cc(OC)c1 [Example 11, {5-[4-(3,5-Dimethoxybenzyloxy)-benzenesulfonyl]-2-methylpyrimidin-4-yl}-(2,4,6-trimethylphenyl)-amine] | ≤ 100 nM | – | – |
| COc1ccc(Nc2nc(C)ncc2S(=O)(=O)c2ccc(OCc3ccccc3)cc2)c(OC)c1 [Example 12, [5-(4-Benzyloxybenzenesulfonyl)-2-methylpyrimidin-4-yl]-(2,4-dimethoxyphenyl)-amine] | – | – | d |
| COc1ccc(S(=O)(=O)c2cnc(C)nc2Cc2c(C)cc(C)cc2C)cc1 [Example 13, 5-(4-Methoxyoxybenzenesulfonyl)-2-methyl-4-(2,4,6-trimethylbenzyl)-pyrimidine] | 100 to 500 nM | 150 to 152 °C | – |
| Cc1cc(C)c(Cc2nc(C)ncc2S(=O)(=O)c2ccc(OCc3ccccc3)cc2)c(C)c1 [Example 14, 5-(4-Benzyloxybenzenesulfonyl)-2-methyl-4-(2,4,6-trimethylbenzyl)-pyrimidine] | ≤ 100 nM | 166 to 168 °C | – |
| Cc1cc(C)c(Nc2nc(C)ncc2S(=O)(=O)c2ccc(N3CCOCC3)cc2)c(C)c1 [Example 16, [2-Methyl-5-(4-morpholin-4-yl-benzenesulfonyl)-pyrimidin-4-yl]-(2,4,6-trimethylphenyl)-amine] | – | 221 to 223 °C | d |
| Cc1cc(C)c(Nc2nc(C)ncc2S(=O)(=O)c2ccc(N3CCN(C)CC3)cc2)c(C)c1 [Example 17, {2-Methyl-5-[4-(4-methylpiperazin-1-yl)-benzenesulfonyl]-pyrimidin-4-yl}-(2,4,6-trimethylphenyl)-amine] | – | – | d |
| Cc1cc(C)c(Nc2nc(C)ncc2S(=O)(=O)c2ccc(-n3ccnc3)cc2)c(C)c1 [Example 18, [5-(4-Imidazol-1-yl-benzenesulfonyl)-2-methylpyrimidin-4-yl]-(2,4,6-trimethylphenyl)-amine] | – | 230 to 232 °C | d |
| Cc1cc(C)c(Nc2nc(C)ncc2S(=O)(=O)c2ccc(NCc3ccccc3)cc2)c(C)c1 [Example 20, [5-(4-Benzylaminobenzenesulfonyl)-2-methylpyrimidin-4-yl]-(2,4,6-trimethylphenyl)-amine] | 100 to 500 nM | 200 to 202 °C | – |
| Cc1cc(C)c(Nc2nc(C)ncc2S(=O)(=O)c2ccc(N(C)Cc3ccccc3)cc2)c(C)c1 [Example 21, {5-[4-(Benzylmethylamino)-benzenesulfonyl]-2-methylpyrimidin-4-yl}-(2,4,6-trimethylphenyl)-amine] | ≤ 100 nM | 146 to 148 °C | – |

Now from value to molecule:

| Ki [1] | melting point | activity [1] | SMILES |
| --- | --- | --- | --- |
| 100 to 500 nM | 153 to 155 °C | – | COc1ccc(S(=O)(=O)c2cnc(C)nc2Nc2c(C)cc(C)cc2C)cc1 [Example 1, [5-(4-Methoxybenzenesulfonyl)-2-methylpyrimidin-4-yl]-(2,4,6-trimethylphenyl)-amine] |
| 500 to 5000 nM | 246 to 248 °C | – | Cc1cc(C)c(Nc2nc(C)ncc2S(=O)(=O)c2ccc(O)cc2)c(C)c1 [Example 2, 4-[2-Methyl-4-(2,4,6-trimethylphenylamino)-pyrimidine-5-sulfonyl]-phenol] |
| 500 to 5000 nM | 142 to 144 °C | – | CC(=O)Oc1ccc(S(=O)(=O)c2cnc(C)nc2Nc2c(C)cc(C)cc2C)cc1 [Example 3, Acetic acid 4-[2-methyl-4-(2,4,6-trimethylphenylamino)-pyrimidine-5-sulfonyl]-phenyl ester] |
| 100 to 500 nM | 191 to 193 °C | – | Cc1cc(C)c(Nc2nc(C)ncc2S(=O)(=O)c2ccc(F)cc2)c(C)c1 [Example 15, [5-(4-Fluorobenzenesulfonyl)-2-methylpyrimidin-4-yl]-(2,4,6-trimethylphenyl)-amine] |
| – | 196 to 198 °C | d | Cc1cc(C)c(Nc2nc(C)ncc2S(=O)(=O)c2ccc(N3CCCC3)cc2)c(C)c1 [Example 19, [2-Methyl-5-(4-pyrrolidin-1-yl-benzenesulfonyl)-pyrimidin-4-yl]-(2,4,6-trimethylphenyl)-amine] |
| 500 to 5000 nM | 258 to 260 °C | – | Cc1cc(C)c(Nc2nc(C)ncc2S(=O)(=O)c2ccc(C#N)cc2)c(C)c1 [Example 22, 4-[2-Methyl-4-(2,4,6-trimethylphenylamino)-pyrimidine-5-sulfonyl]-benzonitrile] |
| 100 to 500 nM | 202 to 204 °C | – | Cc1ccc(S(=O)(=O)c2cnc(C)nc2Nc2c(C)cc(C)cc2C)cc1 [Example 23, [2-Methyl-5-(toluene-4-sulfonyl)-pyrimidin-4-yl]-(2,4,6-trimethylphenyl)-amine] |

From patent US7112585B2, “Pyrimidine derivatives as corticotropin releasing factor inhibitors” (Bristol-Myers Squibb Company, priority 2003, dated 2006)
